# From paper PMC7504721, “Targeting the Initiator Protease of the Classical Pathway of Complement Using Fragment-Based Drug Discovery” (Molecules, 2020)
# System: lectin pathway
# Experiment: Lectin pathway-specific ELISA (mannan, C1q-depleted serum, C4b detection)
# Type: biochemical, human
# Details: single dose 500 µM, triplicate, 2% C1q-depleted serum
# Procedure: Figure 5 Selectivity and mechanistic analysis of CMP-1611 and CMP-1696. (A) Chemical structure of CMP-1611. (B) Chemical structure of CMP-1696. (C) Dose-dependent inhibition by CMP-1611 and CMP-1696 in a classical pathway-specific ELISA. Data were fit with GraphPad Prism using non-linear regression with a log(inhibitor) vs. response model. […] (D) Complement pathway selectivity of CMP-1611 and CMP-1696. Compounds were assessed for their ability to inhibit activation of complement via the lectin and alternative pathways using single doses of 500 µM compound in triplicate. To ensure only lectin pathway activation, 2% (v/v) C1q-depleted serum (CompTech) was used and mannan was used as the activator. To match serum sources and amounts for this assay, the classical pathway assays were repeated here using serum from CompTech at 2% (v/v) final concentration. Alternative pathway activation assays were performed using 20% (v/v) serum (CompTech), alternative pathway buffers, and C3b detection (see Methods and Materials for details). […]
# To carry out classical pathway ELISA-based inhibition assays, IgM was dissolved in coating buffer (100 mM Na2CO3/NaHCO3, pH 9.6) to a final concentration of 3 µg/mL and was dispensed into 96-well plates at 100 µL per well. […] The reaction was stopped with 50 µL of 0.16 M sulfuric acid, and the plate was read at 450 nm using an EnSight multimode plate reader (Perkin-Elmer). […]
row,Compound,inhibition of lectin pathway activation
1,CN(C)c1cc(N2CCCC(N)C2)ncn1 (centres unmarked) [CMP-1611],no effect
2,COCc1nc(-c2ccc(OC3CNC3)cc2)no1 [CMP-1696],blocked
